Assay results reported in publication PMC10924921, “Mi-2β promotes immune evasion in melanoma by activating EZH2 methylation” (Nature Communications, 2024).

Legend:
Assay in all cases: biochemical
Design in all cases: KINOMEscan active-site competition binding panel (468 kinase assays), per cent of control at 1000 nM
Settings in all cases: KINOMEscan per cent of control (binding competition); read-out: Percent Control
MUSK = MUSK (Homo sapiens, UniProt O15146)
Text: (§1) Figure S7 / Percent Control

CAMK2A = CAMK2A (Homo sapiens, UniProt Q9UQM7)
Text: as §1

CSNK1A1 = CSNK1A1 (Homo sapiens, UniProt P48729)
Text: as §1

FLT3 = FLT3 (Homo sapiens, UniProt P36888)
Text: as §1

AKT2 = AKT2 (Homo sapiens, UniProt P31751)
Text: as §1

CDC2L1 = target: T1, CDC2L1 (Homo sapiens, UniProt P21127)
T1 construct: gene CDK11B
Text: as §1

PIK3CA(C420R) = PIK3CA(C420R) (Homo sapiens, UniProt P42336, C420R)
Text: as §1

CDK9 = CDK9 (Homo sapiens, UniProt P50750)
Text: as §1

GRK3 = GRK3 (Homo sapiens, UniProt P35626)
Text: as §1

DRAK1 = target: T2, DRAK1 (Homo sapiens, UniProt Q9UEE5)
T2 construct: gene STK17A
Text: as §1

ERN1 = ERN1 (Homo sapiens, UniProt O75460)
Text: as §1

NEK3 = NEK3 (Homo sapiens, UniProt P51956)
Text: as §1

PCTK1 = target: T3, PCTK1 (Homo sapiens, UniProt Q00536)
T3 construct: gene CDK16
Text: as §1

VPS34 = target: T4, VPS34 (Homo sapiens, UniProt Q8NEB9)
T4 construct: gene PIK3C3
Text: as §1

GAK = GAK (Homo sapiens, UniProt O14976)
Text: as §1

MELK = MELK (Homo sapiens, UniProt Q14680)
Text: as §1

GSK3A = GSK3A (Homo sapiens, UniProt P49840)
Text: as §1

SGK3 = SGK3 (Homo sapiens, UniProt Q96BR1)
Text: as §1

FLT3(R834Q) = FLT3(R834Q) (Homo sapiens, UniProt P36888, R834Q)
Text: as §1

CAMK1D = CAMK1D (Homo sapiens, UniProt Q8IU85)
Text: as §1

[1] = target: T5, ABL1(T315I)-phosphorylated (Homo sapiens, UniProt P00519, T315I)
T5 construct: phosphorylated
Text: as §1

MARK3 = MARK3 (Homo sapiens, UniProt P27448)
Text: as §1

HIPK1 = HIPK1 (Homo sapiens, UniProt Q86Z02)
Text: as §1

[2] = target: T6, RSK2(Kin.Dom.1-N-terminal) (Homo sapiens, UniProt P51812)
T6 construct: gene RPS6KA3; Kin.Dom.1-N-terminal
Text: as §1

Sequence of GRK3 (P35626 whole entry): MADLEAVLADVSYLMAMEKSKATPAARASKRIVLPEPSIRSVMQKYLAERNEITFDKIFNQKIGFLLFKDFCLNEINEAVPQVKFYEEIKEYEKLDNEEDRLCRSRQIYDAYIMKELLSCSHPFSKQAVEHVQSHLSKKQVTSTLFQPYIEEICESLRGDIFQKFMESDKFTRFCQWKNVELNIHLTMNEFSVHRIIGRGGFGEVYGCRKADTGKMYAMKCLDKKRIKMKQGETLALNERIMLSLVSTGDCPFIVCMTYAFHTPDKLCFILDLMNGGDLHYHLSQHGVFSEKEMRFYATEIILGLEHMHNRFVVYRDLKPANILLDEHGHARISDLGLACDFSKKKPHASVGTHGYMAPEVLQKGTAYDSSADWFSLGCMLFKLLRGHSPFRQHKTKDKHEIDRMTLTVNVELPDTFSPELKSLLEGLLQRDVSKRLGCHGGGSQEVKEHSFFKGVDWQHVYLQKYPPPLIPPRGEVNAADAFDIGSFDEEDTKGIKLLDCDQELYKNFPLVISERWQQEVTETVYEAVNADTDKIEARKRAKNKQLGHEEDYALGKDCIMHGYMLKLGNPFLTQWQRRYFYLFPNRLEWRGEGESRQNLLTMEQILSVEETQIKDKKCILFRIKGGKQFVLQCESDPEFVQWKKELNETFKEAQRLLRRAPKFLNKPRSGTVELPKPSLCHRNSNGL
T4 sequence (Q8NEB9 whole entry): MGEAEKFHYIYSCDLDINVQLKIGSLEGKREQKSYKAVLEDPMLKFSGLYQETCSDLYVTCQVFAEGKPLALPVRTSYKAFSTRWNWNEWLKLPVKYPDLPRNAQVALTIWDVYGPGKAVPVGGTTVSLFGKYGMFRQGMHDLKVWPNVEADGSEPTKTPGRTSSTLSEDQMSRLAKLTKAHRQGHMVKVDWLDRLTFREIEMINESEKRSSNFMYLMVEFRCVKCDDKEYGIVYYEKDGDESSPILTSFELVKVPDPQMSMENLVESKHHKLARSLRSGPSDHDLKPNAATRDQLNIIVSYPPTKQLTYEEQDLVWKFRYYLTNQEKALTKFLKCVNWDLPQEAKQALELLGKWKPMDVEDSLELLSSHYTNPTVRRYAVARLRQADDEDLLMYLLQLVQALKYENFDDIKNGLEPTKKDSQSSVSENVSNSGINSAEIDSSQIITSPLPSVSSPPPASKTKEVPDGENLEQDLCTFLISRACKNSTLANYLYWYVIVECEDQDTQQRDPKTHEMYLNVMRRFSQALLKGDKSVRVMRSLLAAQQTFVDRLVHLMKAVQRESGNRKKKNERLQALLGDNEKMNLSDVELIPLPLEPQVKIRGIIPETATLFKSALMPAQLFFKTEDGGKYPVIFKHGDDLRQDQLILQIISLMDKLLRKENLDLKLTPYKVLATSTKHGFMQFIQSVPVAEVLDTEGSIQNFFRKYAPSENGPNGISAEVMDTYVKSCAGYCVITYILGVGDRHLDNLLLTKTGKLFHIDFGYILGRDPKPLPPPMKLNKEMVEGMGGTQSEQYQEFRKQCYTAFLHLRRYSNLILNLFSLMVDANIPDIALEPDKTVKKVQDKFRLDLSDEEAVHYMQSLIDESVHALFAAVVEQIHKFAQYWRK
Sequence of GAK (O14976 whole entry): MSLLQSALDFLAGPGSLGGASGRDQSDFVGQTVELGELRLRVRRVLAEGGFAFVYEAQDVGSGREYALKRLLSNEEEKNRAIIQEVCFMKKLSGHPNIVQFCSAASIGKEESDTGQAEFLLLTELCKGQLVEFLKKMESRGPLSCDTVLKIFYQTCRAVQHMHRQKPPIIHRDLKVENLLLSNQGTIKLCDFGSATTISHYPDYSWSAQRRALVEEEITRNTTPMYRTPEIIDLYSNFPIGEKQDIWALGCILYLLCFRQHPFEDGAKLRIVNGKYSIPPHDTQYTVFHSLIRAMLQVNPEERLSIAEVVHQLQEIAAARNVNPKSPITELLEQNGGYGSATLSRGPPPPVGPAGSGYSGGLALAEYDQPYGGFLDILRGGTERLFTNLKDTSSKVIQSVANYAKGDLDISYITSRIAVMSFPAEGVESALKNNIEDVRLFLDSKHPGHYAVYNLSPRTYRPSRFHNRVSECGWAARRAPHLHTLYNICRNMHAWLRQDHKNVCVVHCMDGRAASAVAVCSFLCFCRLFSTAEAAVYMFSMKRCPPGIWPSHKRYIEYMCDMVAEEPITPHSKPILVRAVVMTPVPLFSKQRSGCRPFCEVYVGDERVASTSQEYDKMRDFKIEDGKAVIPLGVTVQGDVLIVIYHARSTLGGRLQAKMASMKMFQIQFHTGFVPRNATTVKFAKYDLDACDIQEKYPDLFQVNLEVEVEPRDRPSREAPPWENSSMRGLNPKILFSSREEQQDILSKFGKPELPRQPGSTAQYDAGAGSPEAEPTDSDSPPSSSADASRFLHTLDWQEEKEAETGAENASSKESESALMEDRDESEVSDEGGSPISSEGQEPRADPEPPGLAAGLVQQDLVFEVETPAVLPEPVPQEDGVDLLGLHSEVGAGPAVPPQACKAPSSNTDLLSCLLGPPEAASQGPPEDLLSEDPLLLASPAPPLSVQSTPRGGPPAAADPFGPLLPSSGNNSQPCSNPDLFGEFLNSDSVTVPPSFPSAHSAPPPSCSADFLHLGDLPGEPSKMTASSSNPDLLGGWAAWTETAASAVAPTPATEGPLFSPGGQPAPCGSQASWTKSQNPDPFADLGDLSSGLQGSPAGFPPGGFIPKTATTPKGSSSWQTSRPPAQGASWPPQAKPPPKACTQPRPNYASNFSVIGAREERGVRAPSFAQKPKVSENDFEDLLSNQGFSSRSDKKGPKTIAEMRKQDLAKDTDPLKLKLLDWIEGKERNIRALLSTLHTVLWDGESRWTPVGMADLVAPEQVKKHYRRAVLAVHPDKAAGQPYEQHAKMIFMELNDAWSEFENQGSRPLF
Sequence of SGK3 (Q96BR1 whole entry): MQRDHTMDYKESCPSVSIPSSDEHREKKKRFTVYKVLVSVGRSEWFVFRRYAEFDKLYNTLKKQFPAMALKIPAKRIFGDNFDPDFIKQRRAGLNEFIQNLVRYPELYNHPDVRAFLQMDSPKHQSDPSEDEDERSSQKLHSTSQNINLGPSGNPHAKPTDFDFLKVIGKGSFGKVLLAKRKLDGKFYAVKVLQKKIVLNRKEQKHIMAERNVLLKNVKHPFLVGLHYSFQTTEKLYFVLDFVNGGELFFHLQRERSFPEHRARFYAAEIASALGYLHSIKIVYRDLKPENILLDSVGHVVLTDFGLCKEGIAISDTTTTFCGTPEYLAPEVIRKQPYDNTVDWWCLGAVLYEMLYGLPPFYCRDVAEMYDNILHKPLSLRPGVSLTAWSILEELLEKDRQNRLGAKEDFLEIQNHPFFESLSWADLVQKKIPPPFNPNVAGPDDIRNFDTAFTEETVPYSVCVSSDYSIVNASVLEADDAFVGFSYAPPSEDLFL
T2 sequence (Q9UEE5 whole entry): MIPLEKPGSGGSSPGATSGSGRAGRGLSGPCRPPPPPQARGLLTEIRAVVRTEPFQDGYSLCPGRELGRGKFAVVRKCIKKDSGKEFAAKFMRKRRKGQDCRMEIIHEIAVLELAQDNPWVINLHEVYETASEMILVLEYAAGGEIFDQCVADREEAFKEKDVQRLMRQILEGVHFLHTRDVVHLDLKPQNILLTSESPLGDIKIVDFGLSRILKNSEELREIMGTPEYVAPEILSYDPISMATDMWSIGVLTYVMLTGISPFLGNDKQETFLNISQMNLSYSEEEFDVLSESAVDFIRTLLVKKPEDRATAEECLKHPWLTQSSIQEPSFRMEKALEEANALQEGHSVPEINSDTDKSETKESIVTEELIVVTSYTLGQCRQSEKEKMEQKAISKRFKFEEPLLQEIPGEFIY
Sequence of CSNK1A1 (P48729 whole entry): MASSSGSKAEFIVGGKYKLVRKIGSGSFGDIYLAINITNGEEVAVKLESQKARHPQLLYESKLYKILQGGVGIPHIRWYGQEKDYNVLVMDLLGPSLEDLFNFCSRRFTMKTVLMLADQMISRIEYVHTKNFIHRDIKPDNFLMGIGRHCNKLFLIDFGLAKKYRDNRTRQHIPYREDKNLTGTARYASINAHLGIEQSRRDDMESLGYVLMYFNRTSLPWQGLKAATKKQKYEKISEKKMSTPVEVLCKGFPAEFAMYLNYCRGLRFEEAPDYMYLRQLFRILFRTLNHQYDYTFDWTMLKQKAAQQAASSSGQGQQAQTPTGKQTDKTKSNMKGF
Sequence of CAMK2A (Q9UQM7 whole entry): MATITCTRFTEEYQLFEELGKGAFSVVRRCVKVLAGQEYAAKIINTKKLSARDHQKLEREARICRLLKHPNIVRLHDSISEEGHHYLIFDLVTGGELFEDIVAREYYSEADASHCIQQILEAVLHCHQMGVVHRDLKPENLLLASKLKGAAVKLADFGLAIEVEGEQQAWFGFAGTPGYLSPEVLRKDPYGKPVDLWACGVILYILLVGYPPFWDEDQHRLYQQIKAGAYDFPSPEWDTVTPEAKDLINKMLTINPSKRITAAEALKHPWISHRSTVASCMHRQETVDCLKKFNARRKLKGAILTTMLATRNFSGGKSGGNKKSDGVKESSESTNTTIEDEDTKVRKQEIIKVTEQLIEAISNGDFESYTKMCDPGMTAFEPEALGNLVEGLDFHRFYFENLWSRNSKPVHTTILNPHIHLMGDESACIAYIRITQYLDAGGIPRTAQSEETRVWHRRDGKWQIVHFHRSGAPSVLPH
Sequence of CAMK1D (Q8IU85 whole entry): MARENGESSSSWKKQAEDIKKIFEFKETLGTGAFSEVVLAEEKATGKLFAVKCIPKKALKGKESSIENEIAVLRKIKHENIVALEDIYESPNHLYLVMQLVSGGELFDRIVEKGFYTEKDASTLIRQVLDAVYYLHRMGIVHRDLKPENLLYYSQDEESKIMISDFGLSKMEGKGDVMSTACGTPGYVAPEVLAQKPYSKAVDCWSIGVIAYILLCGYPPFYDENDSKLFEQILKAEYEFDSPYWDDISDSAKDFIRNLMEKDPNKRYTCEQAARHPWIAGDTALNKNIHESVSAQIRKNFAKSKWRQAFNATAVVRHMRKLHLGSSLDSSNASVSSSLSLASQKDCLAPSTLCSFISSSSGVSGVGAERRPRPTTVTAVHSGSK

Cn1c(=O)[nH]c2ccc(-c3cccc(C(=O)NC4CCn5ccnc5C4)c3)cc21 (stereo not drawn) [Z36-MP5]
remaining binding at 1 µM (MUSK): 83% | remaining binding at 1 µM (CAMK2A): 87% | remaining binding at 1 µM (CSNK1A1): 74% | remaining binding at 1 µM (FLT3): 95% | remaining binding at 1 µM (AKT2): 89% | remaining binding at 1 µM (CDC2L1): 88% | remaining binding at 1 µM (PIK3CA(C420R)): 91% | remaining binding at 1 µM (CDK9): 37% | remaining binding at 1 µM (GRK3): 53% | remaining binding at 1 µM (DRAK1): 96% | remaining binding at 1 µM (ERN1): 49% | remaining binding at 1 µM (NEK3): 50% | remaining binding at 1 µM (PCTK1): 82% | remaining binding at 1 µM (VPS34): 49% | remaining binding at 1 µM (GAK): 71% | remaining binding at 1 µM (MELK): 85% | remaining binding at 1 µM (GSK3A): 95% | remaining binding at 1 µM (SGK3): 60% | remaining binding at 1 µM (FLT3(R834Q)): 40% | remaining binding at 1 µM (CAMK1D): 61% | remaining binding at 1 µM [1]: 49% | remaining binding at 1 µM (MARK3): 100% | remaining binding at 1 µM (HIPK1): 100% | remaining binding at 1 µM [2]: 67%
